From patent US20240398771A1, “TREATMENT OF SCLERODERMA AND RAYNAUD'S SYNDROME” (Aisa Pharma, Inc., priority 2023, published 2024)

Test system: participants with SSc-RP
Assay: Average severity (0-10) of weekly symptomatic RP attacks
Format: in vivo, human
Details: Example 3
From the text: The relevant metrics measured by this tool daily are: • Study medication • SSc-RP symptoms (Reporting an attack including duration of attack) • Severity of the attack considering all symptoms of the attack e.g. tingling, numbness, pain, color changes (VAS 0-10 cm scale) • Participant's location at the time of the attack (inside home/outside home) • Selecting symptoms experienced during the attack (tingling, numbness, pain, color changes, other) • Pain rating during the attack (11-point Likert scale) • The RCS based on how much difficulty participants had with Raynaud's today, how many attacks the participant had, and how long they lasted. Participants will also be asked to consider how much pain, numbness, or other symptoms the Raynaud's caused in fingers (including painful sores), and how much the Raynaud's alone affected the use of hands today (VAS 0-10 cm scale).
The absolute change in average severity of weekly RP attacks (VAS 0-10 cm scale) from baseline to the end of each Dosing Period was and will be a secondary outcome variable. The sponsor-developed participant-informed diary will be used to record data. Average severity of weekly RP attacks is defined as the total severity scores of RP attacks divided by total number of RP attacks within the last 7 days of each dosing period. […] The variable will be calculated similar to frequency data as before.

COCCOC(=O)C1=C(C)NC(C)=C(C(=O)OC/C=C/c2ccccc2)C1c1cccc([N+](=O)[O-])c1 (stereo not shown) [Cilnidipine, 1,4-dihydro-2,6-dimethyl,4-(3-nitrophenyl)-3,5-pyridinedicarboxylic acid 2-methoxyethyl (2 E)-3-phenyl-2-propenyl ester]
severity of attacks as reported by patients, comparison in words: 20 mg reducing severity more than 10 mg
